Literature values as cited in US20050233013A1, “Methods for enhancing the transport of glucose for balancing blood sugar levels” (priority 2004, published 2005).

Test system: pancreatic beta cell
Conditions: micromolar concentrations; glucose dependent; Sauvaire et al, Diabetes 47:206 (1998)

Question: Which glucose-induced insulin secretion does the source give for C[C@@H]([C@H](C)O)[C@H](N)C(=O)O [major isomer (2S, 3R, 4S), (2S, 3R, 4S)-4-hydroxyisoleucine] here?
Answer: Its glucose-induced insulin secretion is “stimulate glucose-induced insulin secretion”.
